Experimental data taken from patent EP1935887A1, “Heterocyclic substituted carbonyl derivatives and their use as dopamine D3 receptor ligands” (Aventis Pharmaceuticals Inc., priority 2001, dated 2002).

Each compound was assayed against T1, Cloned Human Dopamine D3 Receptors (Homo sapiens, UniProt P35462) (assay: [N-Methyl-3H]Spiroperidol binding to cloned human dopamine D3 receptors). Conditions: D3 Ki (nM).
T1 construct: expressed in transfected cells; membrane homogenate
T1 sequence (P35462 whole entry): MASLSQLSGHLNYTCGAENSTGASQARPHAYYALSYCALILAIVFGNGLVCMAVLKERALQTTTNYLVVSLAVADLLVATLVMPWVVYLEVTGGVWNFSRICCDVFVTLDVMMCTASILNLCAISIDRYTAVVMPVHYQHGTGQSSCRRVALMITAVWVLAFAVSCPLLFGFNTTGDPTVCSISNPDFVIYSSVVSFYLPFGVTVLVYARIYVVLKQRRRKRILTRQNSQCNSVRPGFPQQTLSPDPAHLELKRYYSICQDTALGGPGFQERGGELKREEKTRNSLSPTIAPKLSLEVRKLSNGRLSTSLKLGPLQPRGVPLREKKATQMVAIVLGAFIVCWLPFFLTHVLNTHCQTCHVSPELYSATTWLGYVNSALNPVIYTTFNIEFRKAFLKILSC
In short: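 [N-methyl-3H]spiroperidol binding is run in Tris buffer, pH 7.7. Receptor source is membranes of a stably transfected, high-expressing CHO clone carrying the human D3 gene, kept at -80°C in 10% DMSO.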
`CN1C2CCC1CC(NC(=O)C1CC1CN1CCC(c3nn(C)c4c(C(F)(F)F)cccc34)CC1)C2` (stereo not drawn) [A002328941] showed a Ki of 23.9 nM. With `Cn1nc(N2CCN(CC3CC3C(=O)NCCCn3ccnc3)CC2)c2sccc21` (stereo not drawn) [compound 831673] the Ki was 23.5 nM. `O=C(NCCCc1nc2ccccc2[nH]1)[C@@H]1C[C@H]1CN1CCC(c2noc3ccsc23)CC1` [832574FH] showed a Ki of 57.3 nM. Compound `C[C@H]1CC[C@H](NC(=O)[C@@H]2C[C@H]2CN2CCN(c3noc4ccsc34)CC2)CC1` [compound 831083] has a Ki of 3.2 nM.

Same assay, conditions: Table 2; unit inferred; read-out: d3Ki
In the case of `CC[C@H]1CC[C@H](NC(=O)CCCN2CCCN(c3csc4cc(F)ccc34)CC2)CC1` [compound 826826], the Ki is reported as 27.4 nM. Work on `CCC1CCC(NC(=O)C2CC2CN2CCN(c3cccc(Cl)c3Cl)CC2)CC1` (stereo not drawn) [compound 817041] yielded a Ki of 0.776 nM. `C[C@@]1(C(=O)NCc2ccc3ccccc3c2)C[C@H]1CN1CCN(c2csc3cc(C(F)(F)F)ccc23)CC1` [compound 825882] showed a Ki of 186 nM. In the case of `O=C(CCCCN1CCN(c2csc3cc(F)ccc23)CC1)N(Cc1ccccc1)c1ccc(F)cc1` [compound 814649], the Ki is reported as 38.9 nM. `CC1CCC(NC(=O)C2CC2CN2CCN(c3ccc(C(F)(F)F)cc3)CC2)CC1` (stereo not drawn) [compound 817039] gave a Ki of 14.8 nM. `C[C@@]1(C(=O)NCC2CC2)C[C@H]1CN1CCN(c2csc3cc(C(F)(F)F)ccc23)CC1` [compound 825895] showed a Ki of 31.7 nM. With `CC1CCC(NC(=O)C2CC2CN2CCN(c3ccc(C(F)(F)F)cc3)CC2)CC1` (stereo not drawn) [817039A] the Ki was 35 nM. Compound `CCC1CCC(NC(=O)C2CC2CN2CCN(c3ccc(C(F)(F)F)cc3)CC2)CC1` (stereo not drawn) [compound 817043] has a Ki of 7.2 nM. `CCC1CCC(NC(=O)C2CC2CN2CCN(c3ccc(C)c(C)c3)CC2)CC1` (stereo not drawn) [compound 817046] gave a Ki of 1.92 nM. `CCOC(=O)[C@H]1CC[C@H](NC(=O)[C@@H]2C[C@H]2CN2CCN(c3csc4cc(C(F)(F)F)ccc34)CC2)CC1` [compound 815917] was tested, and the Ki was 18 nM. With `C[C@H]1CC[C@H](NC(=O)[C@@H]2C[C@H]2CN2CCN(c3cccc4[nH]ccc34)CC2)CC1` [compound 817098] the Ki was 1.06 nM. For `O=C(NCc1ccc(C(F)(F)F)cc1)[C@@H]1C[C@H]1CN1CCN(c2csc3cc(C(F)(F)F)ccc23)CC1` [compound 826071], the Ki was 165 nM. `O=C(NCc1ccc2c(c1)OCO2)[C@@H]1C[C@H]1CN1CCN(c2csc3cc(C(F)(F)F)ccc23)CC1` [compound 822204] gave a Ki of 12.6 nM. Compound `CC[C@H]1CC[C@H](NC(=O)[C@@H]2C[C@H]2CN2CCCN(c3cnccn3)CC2)CC1` [compound 817568] has a Ki of 36.3 nM. `O=C(Nc1cccc2c1CCCC2)[C@@H]1C[C@H]1CN1CCN(c2csc3cc(C(F)(F)F)ccc23)CC1` [compound 826078] was tested, and the Ki was 162 nM. In the case of `CCC1CCC(NC(=O)C2CC2CN2CCN(c3cccc4[nH]ccc34)CC2)CC1` (stereo not drawn) [compound 817100], the Ki is reported as 0.75 nM. `CN(C(=O)CCCCN1CCN(c2csc3cc(F)ccc23)CC1)c1ccc(Cl)cc1` [compound 822133] was tested, and the Ki was 17 nM. With `CCN(C(=O)CCCCN1CCN(c2csc3cc(F)ccc23)CC1)c1c(C)cccc1O` [compound 822132] the Ki was 18 nM.

Same assay, conditions: Table 2 part the 10th table; read-out: d3Ki
With `O=C([C@@H]1C[C@H]1CN1CCCN(c2csc3cc(F)ccc23)CC1)N1CCC(N2CCCC2)CC1` [compound 826876] the Ki was 2.72 nM. Work on `O=C([C@@H]1CCC[C@H]1N1CCN(c2csc3cc(F)ccc23)CC1)N1CCCCC1` [compound 826056] yielded a Ki of 5.4 nM. In the case of `CC1CCCCN1C(=O)[C@@H]1C[C@H]1CN1CCCN(c2csc3cc(F)ccc23)CC1` (stereo partly drawn) [compound 826873], the Ki is reported as 1.31 nM. `CCOC(=O)C1CCN(C(=O)CCCN2CCN(c3csc4cc(C(F)(F)F)ccc34)CC2CCCc2ccccc2)CC1` (stereo not drawn) [compound 827082] was tested, and the Ki was 303 nM. Work on `O=C([C@@H]1C[C@H]1CN1CCCN(c2csc3cc(C(F)(F)F)ccc23)CC1)N1CCOCC1` [compound 826691] yielded a Ki of 35 nM. In the case of `CC1CCCN(C(=O)[C@@H]2C[C@H]2CN2CCCN(c3csc4cc(F)ccc34)CC2)C1` (stereo partly drawn) [compound 826875], the Ki is reported as 2.79 nM. `CC1CCN(C(=O)CCCN2CCCN(c3csc4cc(F)ccc34)CC2)CC1` [compound 826834] gave a Ki of 8.01 nM. Work on `CC1CCN(C(=O)CCCN2CCN(c3csc4cc(C(F)(F)F)ccc34)CC2Cc2ccccc2)CC1` (stereo not drawn) [compound 827065] yielded a Ki of 168 nM. In the case of `CCOC(=O)C1CCN(C(=O)[C@@H]2C[C@H]2CN2CCCN(c3csc4cc(F)ccc34)CC2)CC1` [compound 826871], the Ki is reported as 10.7 nM. In the case of `CC1CCCN1C(=O)CCCN1CCCN(c2csc3cc(F)ccc23)CC1` (stereo not drawn) [compound 826842], the Ki is reported as 3.66 nM. For `CC1CCCN(C(=O)[C@@H]2C[C@H]2CN2CCN(c3csc4cc(C(F)(F)F)ccc34)CC2)C1` (stereo partly drawn) [compound 826907], the Ki was 18.8 nM.

Same assay, conditions: read-out: D3 Ki
`O=C(NCCCn1ccnc1)[C@@H]1C[C@H]1CN1CCC(c2csc3cc(C(F)(F)F)ccc23)CC1` [compound 834003] gave a Ki of 3.51 nM. For `COc1ccc2c(c1)c(N1CCN(C[C@@H]3C[C@H]3C(=O)N[C@H]3CC[C@H](O)CC3)CC1)nn2-c1ccc(C(F)(F)F)cc1` [compound 831949], the Ki was 29 nM. With `CN(C)CCCNC(=O)[C@@H]1C[C@H]1CN1CCC(c2noc3ccsc23)CC1` [compound 831048] the Ki was 11.3 nM. In the case of `O=C(NCCCc1ccncc1)[C@@H]1C[C@H]1CN1CCC(c2noc3ccsc23)CC1` [compound 831197], the Ki is reported as 4.17 nM.

Same assay, conditions: read-out: d3Ki
`CC[C@H]1CC[C@H](NC(=O)[C@@H]2C[C@H]2CN2CCN(C(=O)c3ccco3)CC2)CC1` [compound 827228] gave a Ki of 62 nM. In the case of `C[C@H]1CC[C@H](NC(=O)[C@@H]2C[C@H]2CN2CCN(c3ncccc3C(F)(F)F)CC2)CC1` [compound 827183], the Ki is reported as 3.29 nM. Compound `CCN(C(=O)[C@@H]1C[C@H]1CN1CCCN(c2csc3cc(F)ccc23)CC1)C1CCCCC1` [compound 826869] has a Ki of 6.75 nM. Work on `O=C(NCCN1CCOCC1)[C@@H]1C[C@H]1CN1CCCN(c2csc3cc(C(F)(F)F)ccc23)CC1` [compound 826682] yielded a Ki of 103 nM. `CC[C@H]1CC[C@H](NC(=O)[C@@H]2C[C@H]2CN2CCCN(c3csc4cc(F)ccc34)CC2)CC1` [compound 826866] showed a Ki of 1.24 nM. For `O=C(NCCc1ccccn1)[C@@H]1CCCC[C@@H]1CN1CCN(c2csc3cc(C(F)(F)F)ccc23)CC1` [compound 826117], the Ki was 241 nM. With `O=C(NCc1cccc2ccccc12)[C@@H]1CCC[C@H]1N1CCN(c2csc3cc(F)ccc23)CC1` [compound 826059] the Ki was 27.1 nM. For `O=C(NCc1ccc(C(F)(F)F)cc1)[C@@H]1CCCC[C@@H]1CN1CCN(c2csc3cc(C(F)(F)F)ccc23)CC1` [compound 826108], the Ki was 100 nM. With `CC[C@H]1CC[C@H](NC(=O)[C@@H]2C[C@H]2CN2CCN(c3ccc([N+](=O)[O-])cc3)CC2)CC1` [compound 827244] the Ki was 197 nM. `CCOC(=O)[C@H]1CC[C@H](NC(=O)[C@@H]2C[C@H]2CN2CCCN(c3csc4cc(F)ccc34)CC2)CC1` [compound 826865] showed a Ki of 3.68 nM. `CC[C@H]1CC[C@H](NC(=O)[C@@H]2C[C@H]2CN2CCN(c3ccc(C(F)(F)F)cn3)CC2)CC1` [compound 827221] gave a Ki of 99.2 nM. In the case of `Cc1ccc(C)c(N2CCN(C[C@@H]3C[C@H]3C(=O)N[C@H]3CC[C@H](C)CC3)CC2)c1` [compound 827186], the Ki is reported as 8.21 nM. `C[C@H]1CC[C@H](NC(=O)[C@@H]2C[C@H]2CN2CCN(c3ccc(Cl)c(Cl)c3)CC2)CC1` [compound 827185] gave a Ki of 4.89 nM. `CCOC(=O)[C@H]1CC[C@H](NC(=O)[C@@H]2C[C@H]2CN2CCCN(c3csc4cc(C(F)(F)F)ccc34)CC2)CC1` [compound 826679] was tested, and the Ki was 9.1 nM.
